Assay results: patent publication US6358885B1, “Substituted phenylheterocyclic herbicides” (Mississippi State University, priority 1992, dated 2002)

Tests used:
barley [1] = experiment: Test B preemergence/postemergence greenhouse plant response rating 0 to 10; format: in vivo, Hordeum vulgare; settings: 0 to 10 scale
Outline: (§1)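 Test chemicals were sprayed onto freshly planted seed and, concurrently, onto young plants between the one and four leaf stage. After a twelve- to sixteen-day greenhouse period, each species was visually compared with untreated controls.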

bedstraw = experiment: as above; format: in vivo, Galium aparine; settings: 0 to 10 scale
Outline: as §1

cocklebur = experiment: as above; format: in vivo, Xanthium pensylvanicum; settings: 0 to 10 scale
Outline: as §1

morningglory = experiment: as above; format: in vivo, Ipomoea hederacea; settings: 0 to 10 scale
Outline: as §1

sorghum = experiment: as above; format: in vivo, Sorghum bicolor; settings: 0 to 10 scale
Outline: as §1

soybean [2] = experiment: as above; format: in vivo, Glycine max; settings: 0 to 10 scale
Outline: as §1

sugar beet = experiment: as above; format: in vivo, Beta vulgaris; settings: 0 to 10 scale
Outline: as §1

velvetleaf = experiment: as above; format: in vivo, Abutilon theophrasti; settings: 0 to 10 scale
Outline: as §1

wild buckwheat = experiment: as above; format: in vivo, Polygonum convolvulus; settings: 0 to 10 scale
Outline: as §1

barley [3] = experiment: Test C preemergence/postemergence greenhouse plant response rating 0 to 100; format: in vivo, Hordeum vulgare; settings: POSTEMERGENCE; for Plant response rating Barley Igri: 0 to 100 scale
From the text: (§2) The compounds evaluated in this test were formulated in a non-phytoxic solvent and applied to the soil surface before plant seedlings emerged (preemergence application), to water that covered the soil surface (flood application), and to plants that were in the one-to-four leaf stage (postemergence application). A sandy loam soil was used for the preemergence and postemergence tests, while a silt loam soil was used in the flood test. Water depth was approximately 2.5 cm for the flood test and was maintained at this level for the duration of the test. Plant species in the preemergence and postemergence tests consisted of barley (Hordeum vulgare), bedstraw (Galium aparine), blackgrass (Alopecurus myosuroides), chickweed (Stellaria media), corn (Zea mays), cotton (Gossypium hirsutum), crabgrass (Digitaria sanguinalis), downy brome (Bromus tectorum), giant foxtail (Setaria faberii), lambsquarters (Chenopodium album), morningglory (Ipomoea hederacea), pigweed ([…]), rape (Brassica napus), ryegrass (Lolium multiflorum), sorghum (Sorghum bicolor), soybean (Glycine max), speedwell (Veronica persica), sugar beet (Beta vulgaris), velvetleaf (Abutilon theophrasti), wheat (Triticum aestivum), wild buckwheat (Polygonum convolvulus), and wild oat (Avena fatua). All plant species were planted one day before application of the compound for the preemergence portion-of this test. Plantings of these species were adjusted to produce plants of appropriate size for the post-emergence portion of the test. […] All plant species were grown using normal greenhouse practices. Visual evaluations of injury expressed on treated plants, when compared to untreated controls, were recorded approximately fourteen to twenty one days after application of the test compound. […] A dash (-) response means no test result.

blackgrass = experiment: as above; format: in vivo, Alopecurus myosuroides; settings: POSTEMERGENCE; for Plant response rating, Blackgrass: 0 to 100 scale
From the text: as §2

chickweed = experiment: as above; format: in vivo, Stellaria media; settings: POSTEMERGENCE; for Plant response rating, Chickweed: 0 to 100 scale
From the text: as §2

pigweed = experiment: as above; format: in vivo, Amaranthusretroflexus; settings: POSTEMERGENCE; for Plant response rating Pigweed: 0 to 100 scale
From the text: as §2

rape = experiment: as above; format: in vivo, Brassica napus; settings: POSTEMERGENCE; for Plant response rating, Rape: 0 to 100 scale
From the text: as §2

ryegrass = experiment: as above; format: in vivo, Lolium multiflorum; settings: POSTEMERGENCE; for Plant response rating Ryegrass: 0 to 100 scale
From the text: as §2

soybean [4] = experiment: as above; format: in vivo, Glycine max; settings: POSTEMERGENCE; for Plant response rating, Soybean: 0 to 100 scale
From the text: as §2

umbrella sedge = experiment: Test C flood test plant response rating 0 to 100; format: in vivo, Cyperus difformis; settings: for Plant response rating (0 to 100), Umbrella sedge: under POSTEMERGENCE head (flood test species); for Plant response rating Umbrella sedge: flood test species listed under POSTEMERGENCE, 0 to 100 scale
From the text: as §2

In the case of `C#CC(C)Oc1cc(-c2nn3c(c2Cl)CCCC3)c(F)cc1Cl` (stereo not shown) [Compound 36], the “Plant response rating, Barley” value (barley [1]; POSTEMERGENCE, Rate 50 g/ha) is reported as 5, the “Plant response rating, Barley” value (barley [1]; POSTEMERGENCE, Rate 200 g/ha) is reported as 6 and the “Plant response rating, Barley” value (barley [1]; PREEMERGENCE, Rate 50 g/ha) is reported as 0. The “Plant response rating, Barley” value (barley [1]; Rate 200 g/ha, PREEMERGENCE) was 2, the “Plant response rating, Bedstraw” value (bedstraw; POSTEMERGENCE, Rate 50 g/ha) was 10 and the “Plant response rating, Bedstraw” value (bedstraw; POSTEMERGENCE, Rate 200 g/ha) was 10. For the same compound, the “Plant response rating, Bedstraw” value (bedstraw; PREEMERGENCE, Rate 50 g/ha) was 10, the “Plant response rating, Cocklebur” value (cocklebur; POSTEMERGENCE, Rate 50 g/ha) was 9 and the “Plant response rating, Cocklebur” value (cocklebur; POSTEMERGENCE, Rate 200 g/ha) was 10. The “Plant response rating, Cocklebur” value (cocklebur; PREEMERGENCE, Rate 50 g/ha) was 0, the “Plant response rating, Cocklebur” value (cocklebur; Rate 200 g/ha, PREEMERGENCE) was 2 and the “Plant response rating, Morningglory” value (morningglory; POSTEMERGENCE, Rate 50 g/ha) was 8. For the same compound, the “Plant response rating, Morningglory” value (morningglory; PREEMERGENCE, Rate 50 g/ha) was 0, the “Plant response rating, Morningglory” value (morningglory; Rate 200 g/ha, POSTEMERGENCE) was 10 and the “Plant response rating, Morningglory” value (morningglory; Rate 200 g/ha, PREEMERGENCE) was 2. The “Plant response rating, Sorghum” value (sorghum; POSTEMERGENCE, Rate 50 g/ha) was 5, the “Plant response rating, Sorghum” value (sorghum; PREEMERGENCE, Rate 50 g/ha) was 0 and the “Plant response rating, Sorghum” value (sorghum; Rate 200 g/ha, POSTEMERGENCE) was 6. For the same compound, the “Plant response rating, Sorghum” value (sorghum; Rate 200 g/ha, PREEMERGENCE) was 1, the “Plant response rating, Soybean” value (soybean [2]; POSTEMERGENCE, Rate 50 g/ha) was 9 and the “Plant response rating, Soybean” value (soybean [2]; PREEMERGENCE, Rate 50 g/ha) was 0. The “Plant response rating, Soybean” value (soybean [2]; Rate 200 g/ha, POSTEMERGENCE) was 9, the “Plant response rating, Soybean” value (soybean [2]; Rate 200 g/ha, PREEMERGENCE) was 2 and the “Plant response rating, Sugar beet” value (sugar beet; POSTEMERGENCE, Rate 50 g/ha) was 10. The “Plant response rating, Sugar beet” value (sugar beet; PREEMERGENCE, Rate 50 g/ha) was 9, the “Plant response rating, Sugar beet” value (sugar beet; Rate 200 g/ha, POSTEMERGENCE) was 10 and the “Plant response rating, Sugar beet” value (sugar beet; Rate 200 g/ha, PREEMERGENCE) was 9. The “Plant response rating, Velvetleaf” value (velvetleaf; POSTEMERGENCE, Rate 50 g/ha) was 10, the “Plant response rating, Velvetleaf” value (velvetleaf; PREEMERGENCE, Rate 50 g/ha) was 8 and the “Plant response rating, Velvetleaf” value (velvetleaf; Rate 200 g/ha, POSTEMERGENCE) was 10. For the same compound, the “Plant response rating, Velvetleaf” value (velvetleaf; Rate 200 g/ha, PREEMERGENCE) was 10, the “Plant response rating, Wild buckwheat” value (wild buckwheat; POSTEMERGENCE, Rate 50 g/ha) was 10 and the “Plant response rating, Wild buckwheat” value (wild buckwheat; PREEMERGENCE, Rate 50 g/ha) was 10. The “Plant response rating, Wild buckwheat” value (wild buckwheat; Rate 200 g/ha, POSTEMERGENCE) was 10, the “Plant response rating, Wild buckwheat” value (wild buckwheat; Rate 200 g/ha, PREEMERGENCE) was 10 and the “Plant response rating Barley Igri” value (barley [3]; 62 g/ha) was 30. The “Plant response rating Barley Igri” value (barley [3]; 125 g/ha) was 50, the “Plant response rating (0 to 100), Barley Igri” value (barley [3]; Rate 16 g/ha) was 20 and the “Plant response rating (0 to 100), Barley Igri” value (barley [3]; Rate 31 g/ha) was 30. For the same compound, the “Plant response rating, Blackgrass” value (blackgrass; 62 g/ha) was 50, the “Plant response rating, Blackgrass” value (blackgrass; 125 g/ha) was 70 and the “Plant response rating (0 to 100), Blackgrass” value (blackgrass; Rate 16 g/ha) was 30. For the same compound, the “Plant response rating (0 to 100), Blackgrass” value (blackgrass; Rate 31 g/ha) was 40, the “Plant response rating, Chickweed” value (chickweed; 62 g/ha) was 80 and the “Plant response rating, Chickweed” value (chickweed; 125 g/ha) was 100. For the same compound, the “Plant response rating (0 to 100), Chickweed” value (chickweed; Rate 16 g/ha) was 70, the “Plant response rating (0 to 100), Chickweed” value (chickweed; Rate 31 g/ha) was 80 and the “Plant response rating Pigweed” value (pigweed; 62 g/ha) was 100. For the same compound, the “Plant response rating Pigweed” value (pigweed; 125 g/ha) was 100, the “Plant response rating (0 to 100), Pigweed” value (pigweed; Rate 16 g/ha) was 100 and the “Plant response rating (0 to 100), Pigweed” value (pigweed; Rate 31 g/ha) was 100. For the same compound, the “Plant response rating, Rape” value (rape; 62 g/ha) was 100, the “Plant response rating, Rape” value (rape; 125 g/ha) was 100 and the “Plant response rating (0 to 100), Rape” value (rape; Rate 16 g/ha) was 85. The “Plant response rating (0 to 100), Rape” value (rape; Rate 31 g/ha) was 90, the “Plant response rating Ryegrass” value (ryegrass; 62 g/ha) was 30 and the “Plant response rating Ryegrass” value (ryegrass; 125 g/ha) was 50. For the same compound, the “Plant response rating (0 to 100), Ryegrass” value (ryegrass; Rate 16 g/ha) was 20, the “Plant response rating (0 to 100), Ryegrass” value (ryegrass; Rate 31 g/ha) was 30 and the “Plant response rating, Soybean” value (soybean [4]; 62 g/ha) was 80. The “Plant response rating, Soybean” value (soybean [4]; 125 g/ha) was 100, the “Plant response rating (0 to 100), Soybean” value (soybean [4]; Rate 16 g/ha) was 50 and the “Plant response rating (0 to 100), Soybean” value (soybean [4]; Rate 31 g/ha) was 50. For the same compound, the “Plant response rating (0 to 100), Umbrella sedge” value (umbrella sedge; Rate 16 g/ha) was 0, the “Plant response rating (0 to 100), Umbrella sedge” value (umbrella sedge; Rate 31 g/ha) was 20 and the “Plant response rating Umbrella sedge” value (umbrella sedge; 62 g/ha) was 70. The “Plant response rating Umbrella sedge” value (umbrella sedge; 125 g/ha) was 80.
